From US20250382640A1, “LIPID NANOPARTICLES FOR DELIVERY OF NUCLEIC ACIDS” (Juno Therapeutics, Inc., priority 2022, published 2025)
Entries after “also recorded” stand apart in the source; their conditions may differ.

What was measured:
primary human T cells = assay: Transient transfection of activated primary human T cells with DNA LNPs, GFP expression by flow cytometry; format: cell-based
Experimental: Separate compositions of CD4+ and CD8+ cells were selected by immunoaffinity-based enrichment from isolated PBMCs from leukapheresis samples from four healthy human donors. The selected cell compositions were cryopreserved, subsequently thawed and combined in culture at a 1:1 ratio of viable CD4+ to viable CD8+ cells. The combined CD4+ and CD8+ cell composition was then incubated for 48 hours with anti-CD3/CD28 beads (1:1 cell-to-bead ratio) in media containing recombinant IL-2, IL-7, and IL-15 to activate (stimulate) the T cells. […] The cells were cultured in media supplemented with 1 μg/mL of apolipoprotein E4 (ApoE4) to support cellular uptake of the LNPs.
Cells were analyzed by flow cytometry 24 to 48 hours after transfection to determine cell viability and transient GFP expression. Cell viability was determined by quantification of dead cells using SYTOX™ blue dead cell stain and GFP expression was determined via flow cytometry.
Formulations as described in Table E4 were used to transiently transfect human T cells at a 6.0 μg/mL DNA dosing concentration (final concentration with cells), and the effects of varying the described parameters on cell viability and transfection efficiency of T cells were assessed. A combined CD4+ and CD8+ T cell composition was generated and activated substantially as described in Example 2, and incubated in media with […] ApoE4 and LNPs generated from the various formulations for approximately 24 hours at 37° Celsius, 5% CO2, to allow for transfection. Following incubation, cells were assessed for viability and transfection efficiency as described in Example 2. Increasing ionizable lipid mass fraction percentage decreased transfection efficiency (p<0.05; left panel of FIGS. 6A), while there was no statistically significant effect of helper lipid or PEG lipid mass fraction percentage on transfection efficiency (middle and right panels, respectively, of FIG. 6A).

[1] = DNA loading into LNPs, Quant-iT PicoGreen dsDNA assay; format: physicochemical; conditions: Example 4a, Table E14 formulations
Experimental: The resulting LNPs were sized by dynamic light scattering (DLS) before being stored overnight at 5 Celsius. Following overnight incubation, the LNPs were again sized by DLS, and then sterile filtered in a biosafety cabinet. LNPs having an Z-average particle size greater than 200 nm in diameter were filtered using a 0.45 µm filter. All other LNPs were filtered using a 0.2 µm filter. Following sterile filtration, the LNPs were sized a final time by DLS. The LNPs were also assessed for DNA loading, as determined by the Quant-iT™ PicoGreen™ dsDNA broad range DNA assay. Percent DNA loading was calculated as 100×(signal of sample with Triton-X−signal of sample in DI water)/(signal of sample with Triton-X).

DNA loading [1] | Structure (SMILES) | transfection efficiency (primary human T cells; Example 4a, alkyl chain linker length, Table E14 formulations) | transfection efficiency (primary human T cells; Example 4b, heterocyclic headgroup, Table E16 formulations) | transient transfection in T cells (GFP expression) (primary human T cells; F9 and F9A formulations with various ionizable lipids, 24 hours)
consistently high DNA loading | CCCCC/C=C\C/C=C\CCCCCCCCC1(CCCCCCCC/C=C\C/C=C\CCCCC)OCC(CCN(C)C)O1 (stereo not shown) [DLin-KC2-DMA, 2,2-dilinoleyl-4-dimethylaminoethyl-[1,3]-dioxolane] | higher transfection efficiency compared to the other lipids; also recorded: highest transfection efficiency | highest | –
– | CCCCC/C=C\C/C=C\CCCCCCCC(=O)OCCCCN(CCCCOC(=O)CCCCCCC/C=C\C/C=C\CCCCC)CCCCC1NC(=O)C(CCCCN(CCCCOC(=O)CCCCCCC/C=C\C/C=C\CCCCC)CCCCOC(=O)CCCCCCC/C=C\C/C=C\CCCCC)NC1=O (stereo not shown) [OF-C4-Deg-Lin] | – | – | highest levels of transient transfection
